In experiment [1] the target is T1, Tyrosine-protein phosphatase non-receptor type 1 (Homo sapiens) (UniProt P18031).
T1 sequence (whole entry): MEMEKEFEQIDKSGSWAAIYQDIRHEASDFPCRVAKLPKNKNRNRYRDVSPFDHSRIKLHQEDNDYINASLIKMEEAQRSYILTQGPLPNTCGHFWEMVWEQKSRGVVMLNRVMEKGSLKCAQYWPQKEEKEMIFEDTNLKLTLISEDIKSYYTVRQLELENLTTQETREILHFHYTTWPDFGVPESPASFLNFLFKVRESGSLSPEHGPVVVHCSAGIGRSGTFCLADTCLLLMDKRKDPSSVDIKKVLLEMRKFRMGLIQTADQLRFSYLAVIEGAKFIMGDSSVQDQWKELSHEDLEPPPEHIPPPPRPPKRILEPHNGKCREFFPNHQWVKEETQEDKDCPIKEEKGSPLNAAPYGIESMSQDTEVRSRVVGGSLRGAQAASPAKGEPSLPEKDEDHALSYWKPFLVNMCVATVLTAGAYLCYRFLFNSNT
Put plainly: Percent inhibition of Protein Tyrosine Phosphatase 1B (PTP 1B) assayed at 100 uM.

For experiment [2], the target named is T2, Tyrosine-protein phosphatase non-receptor type 1 (Rattus norvegicus) (UniProt P20417).
T2 sequence (whole entry): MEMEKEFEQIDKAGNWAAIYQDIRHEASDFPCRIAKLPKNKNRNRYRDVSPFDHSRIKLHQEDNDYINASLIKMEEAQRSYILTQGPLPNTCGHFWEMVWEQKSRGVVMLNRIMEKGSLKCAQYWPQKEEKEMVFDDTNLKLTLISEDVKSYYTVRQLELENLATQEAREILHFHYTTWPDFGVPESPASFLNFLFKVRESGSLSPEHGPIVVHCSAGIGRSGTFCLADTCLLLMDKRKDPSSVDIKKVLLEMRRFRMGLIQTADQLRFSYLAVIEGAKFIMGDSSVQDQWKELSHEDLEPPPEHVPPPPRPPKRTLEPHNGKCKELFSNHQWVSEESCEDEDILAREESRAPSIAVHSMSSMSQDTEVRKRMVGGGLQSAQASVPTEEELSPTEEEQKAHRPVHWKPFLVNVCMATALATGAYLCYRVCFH
Kind of experiment: Percent inhibition of Protein-tyrosine phosphatase 1 (PTP) assayed at 100 uM.

Experiment [3] has as its target Receptor-type tyrosine-protein phosphatase F (Homo sapiens) (UniProt P10586). Kind of experiment: Percent inhibition of Protein-tyrosine phosphatase Lar assayed at 100 uM.
Experiment [4] addresses T3, Tyrosine-protein phosphatase non-receptor type 11 (Mus musculus) (UniProt P35235).
T3 sequence (whole entry): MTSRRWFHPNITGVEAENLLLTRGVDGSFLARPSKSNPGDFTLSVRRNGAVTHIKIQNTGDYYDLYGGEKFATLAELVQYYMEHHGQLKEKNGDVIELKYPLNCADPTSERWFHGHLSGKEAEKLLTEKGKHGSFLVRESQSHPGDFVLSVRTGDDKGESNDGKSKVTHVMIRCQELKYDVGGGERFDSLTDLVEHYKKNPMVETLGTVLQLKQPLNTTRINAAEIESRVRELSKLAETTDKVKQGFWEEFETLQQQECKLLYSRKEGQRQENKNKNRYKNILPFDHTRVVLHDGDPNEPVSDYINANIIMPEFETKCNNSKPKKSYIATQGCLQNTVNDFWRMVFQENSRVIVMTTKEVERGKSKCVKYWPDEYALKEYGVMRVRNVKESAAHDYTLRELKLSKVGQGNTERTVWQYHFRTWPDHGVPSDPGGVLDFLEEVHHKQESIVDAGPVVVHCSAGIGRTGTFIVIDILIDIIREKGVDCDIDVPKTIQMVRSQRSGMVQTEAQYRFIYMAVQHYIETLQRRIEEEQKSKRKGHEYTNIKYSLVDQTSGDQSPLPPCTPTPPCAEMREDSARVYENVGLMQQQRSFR
Kind of experiment: (§1) Percent inhibition of Tyrosine phosphatase SHP2 SH2 domain containing PTP involved in insulin uM. To be noted: concentration not given here.

A short description of experiment [5]: Uptake of 2-deoxyglucose into L-6 myocytes, measurements were taken in absence of insulin (basal), assayed at 100 uM. The experiment is classed as functional.
Experiment [6] in a line: Uptake of 2-deoxyglucose into L-6 myocytes, measurements were taken in presence of insulin (+ins), assayed at 100 uM. The experiment is classed as functional.
Experiment [7] deals with T3, Tyrosine-protein phosphatase non-receptor type 11 (Mus musculus). The experiment is described as §1. As to conditions: concentration not given here. More on the design: concentration or dose not given beside the values.

Chain of Receptor-type tyrosine-protein phosphatase F (Homo sapiens) (P10586 whole entry): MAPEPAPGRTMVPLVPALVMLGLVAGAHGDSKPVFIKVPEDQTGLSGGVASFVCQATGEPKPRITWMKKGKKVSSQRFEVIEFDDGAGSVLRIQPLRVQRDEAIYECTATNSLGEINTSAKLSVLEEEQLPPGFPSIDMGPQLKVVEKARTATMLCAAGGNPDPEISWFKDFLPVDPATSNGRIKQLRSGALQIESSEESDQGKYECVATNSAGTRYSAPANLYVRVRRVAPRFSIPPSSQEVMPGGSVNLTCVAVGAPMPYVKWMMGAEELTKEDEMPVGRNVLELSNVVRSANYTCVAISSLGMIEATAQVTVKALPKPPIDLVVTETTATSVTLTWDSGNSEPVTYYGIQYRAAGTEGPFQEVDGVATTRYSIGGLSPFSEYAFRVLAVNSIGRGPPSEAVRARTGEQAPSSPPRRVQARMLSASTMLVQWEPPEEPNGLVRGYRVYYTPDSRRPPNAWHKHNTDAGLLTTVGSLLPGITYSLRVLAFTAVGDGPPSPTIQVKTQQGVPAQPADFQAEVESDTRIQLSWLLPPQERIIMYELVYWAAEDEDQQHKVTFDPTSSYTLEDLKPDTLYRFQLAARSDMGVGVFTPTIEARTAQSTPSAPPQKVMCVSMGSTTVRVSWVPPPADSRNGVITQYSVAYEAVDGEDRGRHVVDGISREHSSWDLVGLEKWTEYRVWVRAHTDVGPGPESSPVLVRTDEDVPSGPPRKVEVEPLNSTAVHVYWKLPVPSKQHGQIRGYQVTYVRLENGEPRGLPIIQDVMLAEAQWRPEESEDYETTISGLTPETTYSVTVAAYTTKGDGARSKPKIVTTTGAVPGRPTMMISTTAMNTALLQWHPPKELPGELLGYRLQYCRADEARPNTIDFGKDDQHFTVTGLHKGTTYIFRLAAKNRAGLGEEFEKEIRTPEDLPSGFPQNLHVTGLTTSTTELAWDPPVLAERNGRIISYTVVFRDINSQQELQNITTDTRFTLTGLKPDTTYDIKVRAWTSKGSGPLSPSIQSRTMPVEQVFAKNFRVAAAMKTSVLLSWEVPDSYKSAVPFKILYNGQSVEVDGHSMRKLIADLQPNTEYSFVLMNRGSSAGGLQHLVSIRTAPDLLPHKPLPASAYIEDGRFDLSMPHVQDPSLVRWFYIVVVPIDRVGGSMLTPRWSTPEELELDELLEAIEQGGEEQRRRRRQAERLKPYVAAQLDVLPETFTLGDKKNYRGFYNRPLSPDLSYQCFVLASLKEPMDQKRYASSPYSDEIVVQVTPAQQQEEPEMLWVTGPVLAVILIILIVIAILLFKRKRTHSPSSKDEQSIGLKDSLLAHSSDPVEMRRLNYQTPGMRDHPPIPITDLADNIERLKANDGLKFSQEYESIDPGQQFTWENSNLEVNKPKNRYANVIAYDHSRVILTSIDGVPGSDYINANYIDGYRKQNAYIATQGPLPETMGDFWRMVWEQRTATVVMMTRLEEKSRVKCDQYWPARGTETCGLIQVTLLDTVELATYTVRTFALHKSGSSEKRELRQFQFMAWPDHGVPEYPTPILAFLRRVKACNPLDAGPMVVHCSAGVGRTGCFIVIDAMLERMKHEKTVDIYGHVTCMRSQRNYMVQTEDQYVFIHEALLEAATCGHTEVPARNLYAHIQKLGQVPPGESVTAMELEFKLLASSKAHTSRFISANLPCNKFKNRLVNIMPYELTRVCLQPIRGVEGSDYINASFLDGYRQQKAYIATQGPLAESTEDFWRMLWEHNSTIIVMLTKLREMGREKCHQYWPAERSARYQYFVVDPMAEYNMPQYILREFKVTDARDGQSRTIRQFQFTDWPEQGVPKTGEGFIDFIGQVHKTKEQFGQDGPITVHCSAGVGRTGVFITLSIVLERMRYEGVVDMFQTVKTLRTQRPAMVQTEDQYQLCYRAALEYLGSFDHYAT

In the case of `CCCCCNC(=O)C(Cc1ccc(OS(=O)(=O)O)cc1)NC(=O)CCC(=O)O` (centres undefined), the inhibition in experiment [1] worked out at 51%; in experiment [2], 80%; in experiment [3] it was 5%; in experiment [4], 6%.
For the molecule `CCCCCNC(=O)C(Cc1ccc(OCC(=O)O)c(C(=O)O)c1)NC(=O)[C@H](Cc1ccccc1)NC(=O)OC(C)(C)C` (some centres undefined), the “2-deoxyglucose uptake, % of control” value in experiment [5] is recorded as 81%; in experiment [6], 108%. Further, the inhibition in experiment [1] amounted to 78%; in experiment [2] it was 84%; in experiment [3], 0%; in experiment [7] it was 2%.
`CCCCCNC(=O)C(Cc1ccc(OC(C(=O)O)C(=O)O)cc1)NC(=O)CCC(=O)O` (centres undefined): the inhibition in experiment [1] worked out at 80%; in experiment [2], 76%; in experiment [3], 2%; in experiment [4] it was 8%.
For the molecule `CCCCCNC(=O)C(Cc1ccc(OCC(=O)OC)c(C(=O)OC)c1)NC(=O)[C@H](Cc1ccccc1)NC(=O)CCC(=O)OC` (some centres undefined), the “2-deoxyglucose uptake, % of control” value in experiment [5] came to 225%; in experiment [6] it was 77%. For the same molecule, the inhibition in experiment [1] came to 0%; in experiment [3], 3%; in experiment [7] it was 0%.
Regarding `CCCCCNC(=O)C(Cc1ccc(OCC(=O)OC)c(C(=O)OC)c1)NC(=O)[C@H](Cc1ccccc1)NC(=O)OC(C)(C)C` (some centres undefined), the “2-deoxyglucose uptake, % of control” value in experiment [5] came out at 114%; in experiment [6], 72%. The inhibition came out at 0% in experiment [1], 0% in experiment [3] and 1% in experiment [7].

For orientation: inhibition means the relative decrease from the control value, in per cent.

The record behind these values is ChEMBL document CHEMBL1135703, “Synthesis and biological activity of a novel class of small molecular weight peptidomimetic competitive inhibitors of protein tyrosine phosphatase 1B” (2002).
